The results in this text go back to publication PMC11984905, “Chiral Switch of Gadopiclenol: New Standards in MRI Probes” (Advanced Science, 2025).

Values joined by “and” are separate entries in the source; they are usually repeats but may differ in a detail not shown here. Equal entries are not always repeated. Marks after values point to notes of the source that are not given here.

Data set [1] is described as follows: 1H NMRD profiles and 17O NMR relaxometry in water. The class given is physicochemical. To be noted: for ^298K r 1 [1.5 T] / r 1 ^310K [1.5 T]: water; for ER / q: fixed in the fitting procedure; for q: number of coordinated water molecules; for τ M1: residence time of coordinated water 1, 298 K; for τ M2: residence time of coordinated water 2, 298 K; for ^SS q: second-sphere water molecules at 3.6 Å; for ^298K r 1 [1.5 T] / ^SS q: 298 K. Here is the method:
The magnetic‐field dependence of the longitudinal relaxation rate of water protons (^1H NMRD) were measured in aqueous solution by using a variable field relaxometer equipped with an HTS‐110 3T Metrology Cryogen‐free Superconducting Magnet (Mede, Italy), operating in the overall range of proton Larmor frequencies of 20–120 MHz (0.47–3.00 T). The measurements were performed using the standard inversion recovery sequence (20 experiments, 3 scans) with a 90° pulse width of 3.5 µs. The temperature was controlled with a Stelar VTC‐91 heater airflow. Additional points in the 0.01–10 MHz frequency range were collected on a Fast‐Field Cycling (FFC) Stelar SmarTracer Relaxometer. T 1 values at 500 MHz were collected on a Bruker Avance III NMR spectrometer operating at 11.7 T. The concentration of Gd^3+ in the solutions was determined by using bulk magnetic susceptibility (BMS) shift measurements performed at 11.7 T. For the measurements in the biological fluid, lyophilized plasma matrix (Siemens Healthcare) was added to 1 mL of [Gd(ent‐L2)] (1.0 mM) or Seronorm (Sero) was solubilized in 5 mL [Gd(ent‐L2)] (1.0 mM) solution. ^1H NMRD of the final solution was measured at 310 K.
The spectra were acquired on a Bruker Avance III spectrometer (11.7 T) using a 5 mm probe under temperature control. An aqueous solution of the complexes ([GdL] = 10–15 mM) was enriched to ca. 2.0% of the ^17O isotope (Cambridge Isotope). The transverse relaxation rates (R 2) were measured as a function of temperature in the 278−350 K range. The simultaneous fit of ^1H NMRD and ^17O NMR profiles data was performed using the Micromath Scientist software (version 2.0, Salt Lake City, UT, USA).

Data set [2] is described as follows: Protonation constants of the ligands (pH-potentiometry). The class given is physicochemical. The conditions noted are these: 0.15 M NaCl, 25 °C; for ΣlogKi^H: total basicity. The procedure:
The protonation constants of ligands, the stability and protonation constants of Ca(II)‐ and Zn(II)‐complexes formed with rac‐L1, ent‐L1, rac‐L2, and ent‐L2 ligands were determined by pH‐potentiometric titration. The metal‐to‐ligand concentration ratio was 1:1 (the concentration of the ligand was generally 0.002 M). The protonation constants of the Cu(II)‐ and Gd(III)‐complexes were determined using pH‐potentiometry by titrating the pre‐prepared complexes from pH 2.0 to 12.0 with 0.2 M NaOH. The stability constants of the Gd(III)‐complexes with rac‐L1 and ent‐L1 ligands were determined by the “out‐of‐cell” technique because of their slow formation reaction. The pH range of the complexation equilibria and the time needed to reach the equilibria were determined by relaxometry. Eight–eight Gd(III) – rac‐L1 and Gd(III) – ent‐L1 samples were prepared, with pH values in the range of 1.7–3.0 at equilibrium ([Gd^3+] = [L] = 0.002 M). The samples were kept at 25 °C for 6 weeks to reach equilibrium. For the calculation of the stability constants of the [Gd(rac‐L1)]^3− and [Gd(ent‐L1)]^3− complexes, besides the protonation constants of ligands and the Gd(III) complexes, the stability constants of the di‐protonated [^*Gd(H2 rac‐L1)]^− and [^*Gd(H2 […])]^− out‐of‐cage complexes (considered as intermediates) was also used as fixed values, which were calculated from the pH‐potentiometric titration curve of the Gd(III) – rac‐L1 and Gd(III) – ent‐L1 system obtained in the pH range of 1.7–7.0.
For the pH measurements and titrations, the Metrohm 888 Titrando titration workstation Metrohm‐6.0234.110 combined electrode was used. Equilibrium measurements were carried out at a constant ionic strength (0.15 M NaCl) in 6 mL samples at 25 °C. The solutions were stirred, and N2 was bubbled through them. The titrations were made in the pH range 1.7–12.0. KH‐Phthalate (pH 4.005) and borax (pH 9.177) buffers were used to calibrate the pH meter. For the calculation of [H^+] from the measured pH values, the method proposed by Irving et al. was used as follows.^[ [46] ^] A 0.01M HCl solution was titrated with standardized NaOH solution at 0.15 M NaCl ionic strength. The differences (A) between the measured (pHread) and calculated pH (‐log[H^+]) values were used to obtain the equilibrium H^+ concentration from the pH values measured in the titration experiments (A = 0.02). For the equilibrium calculations, the stoichiometric water ionic product (pK w) was also needed in order to calculate [OH^−] values under basic conditions. The VNaOH – pHread data pairs of the HCl – NaOH titration obtained in the pH range 10.5–12.0 were used to calculate the pK w value (pK w = 13.83).
The protonation constants of ligands, defined by Equation (S1), were determined by pH-potentiometry.
where i=1, 2…7. Standard deviations (3σ) are shown in parentheses. In Table S16, the logKi^H values of rac-L1 and rac-L2 can be regarded as the weighted average of the given protonation constant characterizing the basicity of the related protonation site in the different stereoisomers.

On to `O=C([O-])CCC(C(=O)[O-])N1CCN(C(CCC(=O)[O-])C(=O)[O-])Cc2cccc(n2)CN(C(CCC(=O)[O-])C(=O)[O-])CC1.[Gd+3]` (racemic) [[Gd(ent‐L1)]^3−], for which, in data set [1], the “r 1 difference between [Gd(rac-L1)]3− and [Gd(ent-L1)]3−” value worked out at 18%; the “^298K r 1 [1.5 T]” value was 10.9 mM⁻¹ s⁻¹; the “r 1 ^310K [1.5 T]” value is 8.6 mM⁻¹ s⁻¹; the ER is 22^b) kJ mol^-1. Also, in data set [1], the q amounted to 2, the “τ M1” value amounted to 144 ± 4 ns, the “τ M2” value came out at 58 ± 5 ns and the “^SS q” value was 2.5 ± 0.1. Further, the τ R in data set [1] (Table 2) was determined as 96 ± 3 ps. The τ R in data set [1] (Table S20, 298 K) was found to be 96±3 ps. For the same compound, the q in data set [1] (listed as [Gd(ent-L1)]^3-) is 2^b). Moreover, the “^SS q” value in data set [1] (listed as [Gd(ent‐L1)]^3⁻) came to 2.5.

On to `O=C(O)CCC(C(=O)O)N1CCN(C(CCC(=O)O)C(=O)O)Cc2cccc(n2)CN(C(CCC(=O)O)C(=O)O)CC1` (racemic) [rac‐L1, 2,2’,2’’-[3,6,9,15-tetraazabicyclo[9.3.1]pentadeca-1(15),11,13-triene-3,6,9-triyl]tripentanedioic acid], for which, in data set [2], the “logK1^H” value is given as 10.58 (1), the “logK2^H” value is recorded as 6.99 (1), the “logK3^H” value was 5.50 (1) and the “logK4^H” value is on record as 4.82 (1). In addition, in data set [2], the “logK5^H” value was 4.23 (1), the “logK6^H” value was 3.65 (1), the “logK7^H” value was 2.34 (2) and the “ΣlogKi^H” value turned out to be 38.11.

For `O=C(CCC(C(=O)O)N1CCN(C(CCC(=O)NCC(O)CO)C(=O)O)Cc2cccc(n2)CN(C(CCC(=O)NCC(O)CO)C(=O)O)CC1)NCC(O)CO` (racemic) [rac‐L2], in data set [2], the “logK1^H” value is 9.58 (1), the “logK2^H” value is listed as 5.96 (2), the “logK3^H” value is 4.30 (3) and the “logK4^H” value is given as 2.86 (3). Besides, in data set [2], the “ΣlogKi^H” value worked out at 22.70.

With `O=C(CCC(C(=O)[O-])N1CCN(C(CCC(=O)NCC(O)CO)C(=O)[O-])Cc2cccc(n2)CN(C(CCC(=O)NCC(O)CO)C(=O)[O-])CC1)NCC(O)CO.[Gd+3]` (stereo not drawn) [[Gd(ent‐L2)]], in data set [1], the “r 1 higher than [Gd(PCTA)]” value worked out at 175%; the “r 1 increase compared to [Gd(DOTA)]−” value is 309%; the “relaxivity, times higher than that of currently used GBCAs” value fell in the range of 2 to 3 times; the “^298K r 1 [1.5 T]” value stood at 16.5 mM⁻¹ s⁻¹. Moreover, in data set [1], the “r 1 ^310K [1.5 T]” value was 12.6 mM⁻¹ s⁻¹, the ER is given as 22^b) kJ mol^-1, the q amounted to 2 and the “τ M1” value was 155 ± 3 ns. Also, in data set [1], the “τ M2” value is reported as 77 ± 5 ns; the “^SS q” value is 4.5 and 4.5 ± 0.2. For the same compound, in data set [1] (Table 2), the τ R stood at 127 ± 4 ps. The same compound gave a τ R in data set [1] (Table S20, 298 K) of 127±4 ps. The q in data set [1] (listed as [Gd(ent-L2)]) was 2^b.

For `O=C(O)CCC(C(=O)O)N1CCN(C(CCC(=O)O)C(=O)O)Cc2cccc(n2)CN(C(CCC(=O)O)C(=O)O)CC1` (stereo not drawn) [ent‐L1], in data set [2], the “logK1^H” value is reported as 10.62 (1), the “logK2^H” value is recorded as 6.82 (1), the “logK3^H” value is 5.50 (2) and the “logK4^H” value is given as 4.89 (2). Further, in data set [2], the “logK5^H” value is reported as 4.19 (2), the “logK6^H” value is 3.88 (2), the “logK7^H” value is recorded as 2.30 (2) and the “ΣlogKi^H” value was 38.20.

In the case of `O=C(CCC(C(=O)O)N1CCN(C(CCC(=O)NCC(O)CO)C(=O)O)Cc2cccc(n2)CN(C(CCC(=O)NCC(O)CO)C(=O)O)CC1)NCC(O)CO` (stereo not drawn) [ent‐L2], in data set [2], the “logK1^H” value is recorded as 10.43(1), the “logK2^H” value is 5.95 (1), the “logK3^H” value was 4.08 (1) and the “logK4^H” value is 2.05 (2). Moreover, the “ΣlogKi^H” value in data set [2] was 22.51.
